According to the NIST ThermoML archive (doi:10.1016/j.fluid.2015.10.034):
± gives the expanded uncertainty stated by the source.

Details: Liquid, Frequency=8 MHz, Pulse-echo method

[2H]O[2H] [water-d2]
speed of sound (278.21 K, 150.19 kPa): 1326 ± 0.68 m/s | speed of sound (278.21 K, 152.01 kPa): 1326 ± 0.68 m/s | speed of sound (278.21 K, 5021.9 kPa): 1332.5 ± 0.68 m/s | speed of sound (278.21 K, 5025.1 kPa): 1332.5 ± 0.68 m/s | speed of sound (278.21 K, 9983.4 kPa): 1339.3 ± 0.69 m/s | speed of sound (278.21 K, 9986 kPa): 1339.3 ± 0.69 m/s | speed of sound (278.21 K, 15113 kPa): 1346.4 ± 0.69 m/s | speed of sound (278.21 K, 15117 kPa): 1346.5 ± 0.69 m/s | speed of sound (278.21 K, 20109 kPa): 1353.6 ± 0.69 m/s | speed of sound (278.21 K, 20152 kPa): 1353.7 ± 0.69 m/s | speed of sound (278.22 K, 2465.2 kPa): 1329.1 ± 0.68 m/s | speed of sound (278.22 K, 2465.6 kPa): 1329.1 ± 0.68 m/s | speed of sound (283.21 K, 154.9 kPa): 1347.8 ± 0.69 m/s | speed of sound (283.21 K, 156.96 kPa): 1347.8 ± 0.69 m/s | speed of sound (283.21 K, 2494.8 kPa): 1351.1 ± 0.69 m/s | speed of sound (283.21 K, 2498 kPa): 1351.1 ± 0.69 m/s | speed of sound (283.21 K, 5043.1 kPa): 1354.6 ± 0.69 m/s | speed of sound (283.21 K, 5043.6 kPa): 1354.6 ± 0.69 m/s | speed of sound (283.21 K, 9942.4 kPa): 1361.6 ± 0.69 m/s | speed of sound (283.21 K, 9943.6 kPa): 1361.6 ± 0.69 m/s | speed of sound (283.21 K, 15142 kPa): 1369 ± 0.7 m/s | speed of sound (283.21 K, 15143 kPa): 1369.1 ± 0.7 m/s | speed of sound (283.21 K, 20195 kPa): 1376.4 ± 0.7 m/s | speed of sound (283.21 K, 20198 kPa): 1376.4 ± 0.7 m/s | speed of sound (293.2 K, 179.82 kPa): 1384.1 ± 0.7 m/s | speed of sound (293.2 K, 181.19 kPa): 1384.1 ± 0.7 m/s | speed of sound (293.2 K, 2473.1 kPa): 1387.5 ± 0.7 m/s | speed of sound (293.2 K, 2473.2 kPa): 1387.5 ± 0.7 m/s | speed of sound (293.2 K, 5119.8 kPa): 1391.4 ± 0.71 m/s | speed of sound (293.2 K, 5125.6 kPa): 1391.4 ± 0.71 m/s | speed of sound (293.2 K, 10078 kPa): 1398.8 ± 0.71 m/s | speed of sound (293.2 K, 10086 kPa): 1398.8 ± 0.71 m/s | speed of sound (293.2 K, 15047 kPa): 1406.2 ± 0.71 m/s | speed of sound (293.2 K, 15052 kPa): 1406.2 ± 0.71 m/s | speed of sound (293.2 K, 20333 kPa): 1414.2 ± 0.97 m/s | speed of sound (293.2 K, 20361 kPa): 1414.2 ± 0.97 m/s | speed of sound (313.2 K, 109.61 kPa): 1432.5 ± 0.72 m/s | speed of sound (313.2 K, 109.88 kPa): 1432.5 ± 0.72 m/s | speed of sound (313.2 K, 2458.2 kPa): 1436.3 ± 0.72 m/s | speed of sound (313.2 K, 2468.5 kPa): 1436.3 ± 0.72 m/s | speed of sound (313.2 K, 5110.5 kPa): 1440.5 ± 0.72 m/s | speed of sound (313.2 K, 5110.8 kPa): 1440.5 ± 0.72 m/s | speed of sound (313.2 K, 15060 kPa): 1456.3 ± 0.73 m/s | speed of sound (313.2 K, 20267 kPa): 1464.5 ± 0.73 m/s | speed of sound (313.2 K, 20276 kPa): 1464.6 ± 0.73 m/s | speed of sound (333.2 K, 195.58 kPa): 1456.2 ± 0.73 m/s | speed of sound (333.2 K, 211.29 kPa): 1456.2 ± 0.73 m/s | speed of sound (333.2 K, 2499.2 kPa): 1460.1 ± 0.73 m/s | speed of sound (333.2 K, 2499.6 kPa): 1460.1 ± 0.73 m/s | speed of sound (333.2 K, 5054.7 kPa): 1464.5 ± 0.73 m/s | speed of sound (333.2 K, 5055 kPa): 1464.5 ± 0.73 m/s | speed of sound (333.2 K, 10044 kPa): 1473 ± 2.3 m/s | speed of sound (333.2 K, 10071 kPa): 1473.1 ± 2.3 m/s | speed of sound (333.2 K, 20122 kPa): 1490 ± 0.74 m/s | speed of sound (333.2 K, 20126 kPa): 1490 ± 0.74 m/s | speed of sound (353.2 K, 142.15 kPa): 1460.6 ± 0.73 m/s | speed of sound (353.2 K, 144.59 kPa): 1460.6 ± 0.73 m/s | speed of sound (353.2 K, 2522.3 kPa): 1465.1 ± 0.73 m/s | speed of sound (353.2 K, 2528 kPa): 1465 ± 0.73 m/s | speed of sound (353.2 K, 5032.1 kPa): 1469.7 ± 0.74 m/s | speed of sound (353.2 K, 5034.1 kPa): 1469.7 ± 0.74 m/s | speed of sound (353.2 K, 10091 kPa): 1479 ± 0.74 m/s | speed of sound (353.2 K, 10094 kPa): 1479.1 ± 0.74 m/s | speed of sound (353.2 K, 15060 kPa): 1488 ± 0.74 m/s | speed of sound (353.2 K, 15062 kPa): 1488.1 ± 0.74 m/s
